Values after ≈ are worked out from the molar mass of the structure shown. Marks after values point to notes of the source that are not given here. Non-standard residues stand in square brackets, D forms with d. Residues, ends and D or L forms follow the SMILES beside them. d2Nal = N[C@H](Cc1ccc2ccccc2c1)C(=O)O
Tests used:
[1] = system: Bacillus subtilis ATCC 6633; type: cell-based
In short: (§1)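 Broth microdilution (CLSI), twofold steps, MIC endpoint, 5× in parallel.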

[2] = system: Candida albicans ATCC MYA-2876; type: cell-based
In short: as §1

[3] = system: Candida glabrata ATCC 15126; type: cell-based
In short: as §1

Candida krusei ATCC 6258 = type: cell-based
In short: as §1

[4] = system: Candida tropicalis ATCC 750; type: cell-based
In short: as §1

Candida utilis ATCC 9950 = type: cell-based
In short: as §1

[5] = system: Corynebacterium ATCC 7715; type: cell-based
In short: as §1

Enterococcus ATCC 29212 = type: cell-based
In short: as §1

[6] = system: Escherichia coli ATCC 25922; type: cell-based
In short: as §1

[7] = system: Klebsiella pneumoniae ATCC 700603; type: cell-based
In short: as §1

[8] = system: Pseudomonas aeruginosa ATCC 27853; type: cell-based
In short: as §1

[9] = system: Salmonella typhimurium ATCC 14028; type: cell-based
In short: as §1

[10] = system: Serratia marcescens ATCC 29021; type: cell-based
In short: as §1

[11] = system: Staphylococcus aureus ATCC 25923; type: cell-based
In short: as §1

[12] = system: Trichophyton ATCC MYA-4438; type: cell-based
In short: as §1

[13] = system: Methicillin-resistant Staphylococcus aureus (MRSA); type: cell-based; settings: Methicillin-resistant
In short: (§2)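 CLSI twofold serial microdilution; MIC read per drug-resistant clinical strain; n = 5 parallel replicates.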

[14] = system: carbapenem-resistant Escherichia coli (CREC); type: cell-based; settings: carbapenem-resistant (CREC)
In short: as §2

[15] = system: carbapenem-resistant Klebsiella pneumoniae (CRKP); type: cell-based; settings: carbapenem-resistant (CRKP)
In short: as §2

[16] = system: carbapenem-resistant Pseudomonas aeruginosa (CRPA); type: cell-based; settings: carbapenem-resistant (CRPA)
In short: as §2

[17] = system: vancomycin-resistant Enterococcus (VRE); type: cell-based
In short: as §2

[18] = system: Staphylococcus aureus (NRS 384); settings: NRS 384, 3 h
Protocol: Trypsin (250 U/mg, pH=8.0) and AMPs (LV-1 to LV-30) were mixed in a ratio of 1:10 (w/w) and added to a reaction buffer (0.2 M sodium phosphate, 1 mM CaCl2), pH 7.5), and then incubated at 37° C. for 3 h.

[19] = system: Pseudomonas aeruginosa ATCC 27853; assay: Injectable formulations on mice infected with peritonitis; type: in vivo, ICR mice; settings: twice a day for 3 days; for Number of mice that died on each day after infection: day 1 / Number of mice that died on each day after infection: day 2 / Number of mice that died on each day after infection: day 3 / Number of mice that died on each day after infection: day 4 / Number of mice that died on each day after infection: day 5 / Average survival times (Days): n = 10; for Average survival times (Days): observed for 14 d; for survival time of mice infected with Pseudomonas aeruginosa: tail vein, observed 14 d
In short: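 Survival readout: deaths and survival time tracked for 14 d. Treatment was tail-vein injection by body weight, twice a day for 3 consecutive days, starting right after intraperitoneal challenge with 0.2 mL of 1×10^9 CFU/mL P. aeruginosa ATCC 27853 in male and female ICR mice.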

[20] = Serum stability assay (residual level by RP-HPLC); settings: human

For `CC(=O)N[C@H](CCCCN)C(=O)N[C@H](CCCCN)C(=O)N[C@H](CC(C)C)C(=O)N[C@H](CC(C)C)C(=O)N[C@H](Cc1ccc2ccccc2c1)C(=O)N[C@H](CCCCN)C(=O)N[C@H](CC(C)C)C(=O)N[C@H](CCCCN)C(=O)N[C@H](Cc1ccc2ccccc2c1)C(=O)N[C@H](CCCCN)C(=O)N[C@H](CCCCN)C(N)=O` [LV-17] (Ac-[dK][dK][dL][dL][d2Nal][dK][dL][dK][d2Nal][dK][dK]-NH2), the “MIC Bacillus subtilis ATCC 6633” value [1] was 4 µg/mL (≈ 2.56 µM), the “MIC Candida albicans ATCC MYA-2876” value [2] was 8 µg/mL (≈ 5.12 µM) and the “MIC Candida glabrata ATCC 15126” value [3] was 8 µg/mL (≈ 5.12 µM). The “MIC Candida krusei ATCC 6258” value (Candida krusei ATCC 6258) was 8 µg/mL (≈ 5.12 µM), the “MIC Candida tropicalis ATCC 750” value [4] was 8 µg/mL (≈ 5.12 µM) and the “MIC Candida utilis ATCC 9950” value (Candida utilis ATCC 9950) was 16 µg/mL (≈ 10.2 µM). For the same compound, the “MIC Corynebacterium ATCC 7715” value [5] was 2 µg/mL (≈ 1.28 µM), the “MIC Enterococcus ATCC 29212” value (Enterococcus ATCC 29212) was 2 µg/mL (≈ 1.28 µM) and the “MIC Escherichia coli ATCC 25922” value [6] was 1 µg/mL (≈ 0.64 µM). The “MIC Klebsiella pneumoniae ATCC 700603” value [7] was 4 µg/mL (≈ 2.56 µM), the “MIC Pseudomonas aeruginosa ATCC 27853” value [8] was 1 µg/mL (≈ 0.64 µM) and the “MIC Salmonella typhimurium ATCC 14028” value [9] was 4 µg/mL (≈ 2.56 µM). For the same compound, the “MIC Serratia marcescens ATCC 29021” value [10] was 2 µg/mL (≈ 1.28 µM), the “MIC Staphylococcus aureus ATCC 25923” value [11] was 1 µg/mL (≈ 0.64 µM) and the “MIC Trichophyton ATCC MYA-4438” value [12] was 8 µg/mL (≈ 5.12 µM). The “MIC MRSA” value [13] was 8 µg/mL (≈ 5.12 µM), the “MIC CREC” value [14] was 4 µg/mL (≈ 2.56 µM) and the “MIC CRKP” value [15] was 4 µg/mL (≈ 2.56 µM). For the same compound, the “MIC CRPA” value [16] was 4 µg/mL (≈ 2.56 µM), the “MIC VRE” value [17] was 8 µg/mL (≈ 5.12 µM) and the “Trypsin MIC” value [18] was 1 µg/mL. For the same compound, the “Number of mice that died on each day after infection: day 1” value (shortened to “Number of mice that died … day 1”) ([19]; 0.2 mg/kg via tail vein) was 1 Mouse, the “Number of mice that died on each day after infection: day 2” value (“Number of mice that died … day 2” below) ([19]; 0.2 mg/kg via tail vein) was 2 Mouse and the “Number of mice that died on each day after infection: day 3” value (from here on “Number of mice that died … day 3”) ([19]; 0.2 mg/kg via tail vein) was 1 Mouse. For the same compound, the “Number of mice that died on each day after infection: day 4” value (shortened to “Number of mice that died … day 4”) ([19]; 0.2 mg/kg via tail vein) was 1 Mouse, the “Number of mice that died on each day after infection: day 5” value (“Number of mice that died … day 5” below) ([19]; 0.2 mg/kg via tail vein) was 1 Mouse and the “Average survival times (Days)” value ([19]; 0.2 mg/kg via tail vein) was 7.3** Days. For the same compound, the “Number of mice that died … day 1” value ([19]; 1 mg/kg via tail vein) was 0 Mouse, the “Number of mice that died … day 2” value ([19]; 1 mg/kg via tail vein) was 2 Mouse and the “Number of mice that died … day 3” value ([19]; 1 mg/kg via tail vein) was 0 Mouse. For the same compound, the “Number of mice that died … day 4” value ([19]; 1 mg/kg via tail vein) was 1 Mouse, the “Number of mice that died … day 5” value ([19]; 1 mg/kg via tail vein) was 0 Mouse and the “Average survival times (Days)” value ([19]; 1 mg/kg via tail vein) was 10.6**** Days. The “Number of mice that died … day 1” value ([19]; 5 mg/kg via tail vein) was 0 Mouse, the “Number of mice that died … day 2” value ([19]; 5 mg/kg via tail vein) was 2 Mouse and the “Number of mice that died … day 3” value ([19]; 5 mg/kg via tail vein) was 1 Mouse. The “Number of mice that died … day 4” value ([19]; 5 mg/kg via tail vein) was 1 Mouse, the “Number of mice that died … day 5” value ([19]; 5 mg/kg via tail vein) was 0 Mouse and the “Average survival times (Days)” value ([19]; 5 mg/kg via tail vein) was 9.5*** Days. The “survival time of mice infected with Pseudomonas aeruginosa” value [19] was “superior to those of the Levofloxacin group” and the remaining at 12 h, 0.91 mg/mL [20] was 97.2%.

In the case of `CC(=O)N[C@H](CCCNC(=N)N)C(=O)N[C@H](CCCCN)C(=O)N[C@H](CC(C)C)C(=O)N[C@H](CC(C)C)C(=O)N[C@H](Cc1ccc2ccccc2c1)C(=O)N[C@H](CCCCN)C(=O)N[C@H](CC(C)C)C(=O)N[C@H](CCCCN)C(=O)N[C@H](Cc1ccc2ccccc2c1)C(=O)N[C@H](CCCCN)C(=O)N[C@H](CCCNC(=N)N)C(N)=O` [LV-18] (Ac-[dR][dK][dL][dL][d2Nal][dK][dL][dK][d2Nal][dK][dR]-NH2), the “MIC Bacillus subtilis ATCC 6633” value [1] is reported as 4 µg/mL (≈ 2.47 µM), the “MIC Candida albicans ATCC MYA-2876” value [2] is reported as 4 µg/mL (≈ 2.47 µM) and the “MIC Candida glabrata ATCC 15126” value [3] is reported as 4 µg/mL (≈ 2.47 µM). The “MIC Candida krusei ATCC 6258” value (Candida krusei ATCC 6258) was 4 µg/mL (≈ 2.47 µM), the “MIC Candida tropicalis ATCC 750” value [4] was 2 µg/mL (≈ 1.24 µM) and the “MIC Candida utilis ATCC 9950” value (Candida utilis ATCC 9950) was 8 µg/mL (≈ 4.94 µM). The “MIC Corynebacterium ATCC 7715” value [5] was 2 µg/mL (≈ 1.24 µM), the “MIC Enterococcus ATCC 29212” value (Enterococcus ATCC 29212) was 4 µg/mL (≈ 2.47 µM) and the “MIC Escherichia coli ATCC 25922” value [6] was 1 µg/mL (≈ 0.618 µM). The “MIC Klebsiella pneumoniae ATCC 700603” value [7] was 2 µg/mL (≈ 1.24 µM), the “MIC Pseudomonas aeruginosa ATCC 27853” value [8] was 1 µg/mL (≈ 0.618 µM) and the “MIC Salmonella typhimurium ATCC 14028” value [9] was 4 µg/mL (≈ 2.47 µM). The “MIC Serratia marcescens ATCC 29021” value [10] was 4 µg/mL (≈ 2.47 µM), the “MIC Staphylococcus aureus ATCC 25923” value [11] was 2 µg/mL (≈ 1.24 µM) and the “MIC Trichophyton ATCC MYA-4438” value [12] was 16 µg/mL (≈ 9.89 µM). The “MIC MRSA” value [13] was 4 µg/mL (≈ 2.47 µM), the “MIC CREC” value [14] was 2 µg/mL (≈ 1.24 µM) and the “MIC CRKP” value [15] was 2 µg/mL (≈ 1.24 µM). For the same compound, the “MIC CRPA” value [16] was 4 µg/mL (≈ 2.47 µM), the “MIC VRE” value [17] was 8 µg/mL (≈ 4.94 µM) and the “Trypsin MIC” value [18] was 1 µg/mL. The “Number of mice that died … day 1” value ([19]; 0.2 mg/kg via tail vein) was 2 Mouse, the “Number of mice that died … day 2” value ([19]; 0.2 mg/kg via tail vein) was 1 Mouse and the “Number of mice that died … day 3” value ([19]; 0.2 mg/kg via tail vein) was 1 Mouse. For the same compound, the “Number of mice that died … day 4” value ([19]; 0.2 mg/kg via tail vein) was 1 Mouse, the “Number of mice that died … day 5” value ([19]; 0.2 mg/kg via tail vein) was 1 Mouse and the “Average survival times (Days)” value ([19]; 0.2 mg/kg via tail vein) was 7.2** Days. For the same compound, the “Number of mice that died … day 1” value ([19]; 1 mg/kg via tail vein) was 0 Mouse, the “Number of mice that died … day 2” value ([19]; 1 mg/kg via tail vein) was 1 Mouse and the “Number of mice that died … day 3” value ([19]; 1 mg/kg via tail vein) was 0 Mouse. For the same compound, the “Number of mice that died … day 4” value ([19]; 1 mg/kg via tail vein) was 1 Mouse, the “Number of mice that died … day 5” value ([19]; 1 mg/kg via tail vein) was 1 Mouse and the “Average survival times (Days)” value ([19]; 1 mg/kg via tail vein) was 10.9**** Days. For the same compound, the “Number of mice that died … day 1” value ([19]; 5 mg/kg via tail vein) was 0 Mouse, the “Number of mice that died … day 2” value ([19]; 5 mg/kg via tail vein) was 2 Mouse and the “Number of mice that died … day 3” value ([19]; 5 mg/kg via tail vein) was 1 Mouse. For the same compound, the “Number of mice that died … day 4” value ([19]; 5 mg/kg via tail vein) was 0 Mouse, the “Number of mice that died … day 5” value ([19]; 5 mg/kg via tail vein) was 0 Mouse and the “Average survival times (Days)” value ([19]; 5 mg/kg via tail vein) was 10.5**** Days. For the same compound, the “survival time of mice infected with Pseudomonas aeruginosa” value [19] was “superior to those of the Levofloxacin group” and the remaining at 12 h, 0.91 mg/mL [20] was 97.6%.
